From ChEMBL document CHEMBL1158574, “Trichodermaketones A-D and 7-O-methylkoninginin D from the marine fungus Trichoderma koningii” (2010)

Tested on: Staphylococcus aureus
Test: Antibacterial activity against methicillin-resistant Staphylococcus aureus clinical isolate measured after overnight incubation at 37 degC
Assay type: functional

Row | SMILES | MIC [µg/mL]
1 | CCCCCC[C@@H]1O[C@@H]2C3=C(O[C@@H]2[C@@H]1O)[C@H](O)CCC3=O [TRICHODERMAKETONE A] | > 100
2 | CCCCCC/C=C/[C@H]1CC2=C(O1)[C@H](O)CCC2=O [TRICHODERMAKETONE D] | > 100
3 | CCCCCC/C=C/[C@@H]1CC2=C(O1)[C@H](O)CCC2=O [TRICHODERMAKETONE C] | > 100
4 | CCCCCC[C@H](O)[C@@H]1C[C@@H](OC)C2=C(O1)[C@H](O)CCC2=O | > 100
5 | CCCCCC[C@H]1O[C@H]2C3=C(O[C@H]2[C@H]1O)[C@H](O)CCC3=O [TRICHODERMAKETONE B] | > 100

Tested on: Candida albicans
Test: Antimicrobial activity against Candida albicans SC5314 measured after overnight incubation at 35 degC by broth microdilution assay
Assay type: functional

Row | SMILES | MIC [µg/mL]
6 | CCCCCC[C@@H]1O[C@@H]2C3=C(O[C@@H]2[C@@H]1O)[C@H](O)CCC3=O [TRICHODERMAKETONE A] | > 125
